The record followed here is patent US10544138B2, “Tricyclic kinase inhibitors of MELK and methods of use” (Dana-Farber Cancer Institute, Inc., priority 2015, dated 2020).

For this assay, the system named is chromosome passenger complex (Survivin, Aurora B). The assay can be described thus: Localization of chromosome passenger complex, immunofluorescence. The format is cell-based. The conditions noted are these: with nocodazole (0.33 μM) and MG132 (10 μM) 3 h. The method, then: Cell lysates were prepared for immunoblotting. […] HeLa cells were treated with DMSO or THZ-4-63-1 (5 μM) for 4 h followed by 1 h treatment of MG132 (10 μM). Cells were fixed and stained with anti-H3T3ph and anti-CREST. […] Cells were treated as in FIG. 2, Panel D, and additionally treated with MG132 (10 μM) for 1 h before fixation. The histogram indicates the quantification of H3S10ph signal. […] MCF-10A cells stably expressing empty vector (EV) or MELK were fixed for immunostaining. Images were captured with identical exposure time. H3T3ph intensity was quantified by the use of ImageJ. […] Recombinant MELK protein (kinase domain) was incubated with recombinant Histone H3 for 30 min at 30° C. Samples were subjected to immunoblotting using the indicated antibodies. […] Cells stably expressing GFP-MELK were fixed by formaldehyde and stained with anti-H3S10ph. […] Asynchronized (Async.) or nocodazole-arrested mitotic cells were subjected to fractionation, with sample prepared for immunoblotting. Panels H and I are images showing that MELK inhibition impairs the localization of chromosome passenger complex (CPC), indicated by the immunofluorescence detecting Survivin (G) and Aurora B (H). In addition to the presence of doxycyclin or THZ-4-63-1, cells were treated with nocodazole (0.33 μM) and MG132 (10 μM) for 3 h before fixation. […]

As to `CN(C)Cc1ccc(-n2c(=O)ccc3cnc4ccc(-c5cc(Cl)c(O)c(Cl)c5)cc4c32)cc1` [THZ-4-63-1], the “Centromeric localization of CPC subunits Survivin and Aurora B” value is on record as “became diffusive”.
